Measured values published in patent US20060135773A1, “Trisubstituted nitrogen modulators of tyrosine phosphatases” (priority 2004, published 2006).
pIC50: −log10 of the molar value.

Each compound was assayed against T1, PTP-1B (Homo sapiens, UniProt P18031) (assay: pNPP tyrosine phosphatase inhibition assay, PTP-1B). Conditions: pNPP assay, PTP-1B; read-out: Activity Class (IC50 ranges).
T1 construct: PTP-1B (purified, 1 mg/mL) as a 1:250 dilution
T1 sequence (P18031 1-321 limits assumed): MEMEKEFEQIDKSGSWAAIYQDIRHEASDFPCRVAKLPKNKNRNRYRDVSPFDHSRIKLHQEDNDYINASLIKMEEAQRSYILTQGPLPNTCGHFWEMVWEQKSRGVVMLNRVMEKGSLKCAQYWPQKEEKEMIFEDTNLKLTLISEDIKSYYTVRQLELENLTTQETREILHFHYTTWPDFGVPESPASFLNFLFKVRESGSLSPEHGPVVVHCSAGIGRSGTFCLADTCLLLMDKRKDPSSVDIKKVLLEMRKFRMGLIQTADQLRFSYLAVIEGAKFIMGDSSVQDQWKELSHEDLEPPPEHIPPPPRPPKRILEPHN
Assay type: biochemical
How it was run: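 Test compounds were screened at two final levels, 31.3 and 10 µM, against 4 µg/mL purified PTP-1B. The substrate was 10 mM p-nitrophenyl phosphate, with incubation for 10 min at 30°C before a K2CO3 quench. Activity was taken from A405.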

Row | Compound | pIC50
1 | NC(=O)c1cccc(S(=O)(=O)N(Cc2ccc(C(F)(F)P(=O)(O)O)c(Cl)c2)Cc2ccccc2-c2ccccc2)c1 [Compound 214, [(4-{[Biphenyl-2-ylmethyl-(3-carbamoyl-benzenesulfonyl)-amino]-methyl}-2-chloro-phenyl)-difluoro-methyl]-phosphonic acid] | 6.30 to 6.60
2 | COc1ccccc1S(=O)(=O)N(Cc1ccc(C#N)cc1)Cc1ccc(N(S(=O)(=O)C(F)(F)F)S(=O)(=O)C(F)(F)F)cc1 [Compound 112, N-(4-[bis(N-trifluoro-methanesulfonyl)amino]benzyl)-N-(4-cyanobenzyl)-(2-methoxy)benzenesulfonamide] | < 4.60
3 | COc1ccccc1S(=O)(=O)N(CCc1cccc(-c2cccc(C(=O)O)c2)c1)Cc1ccc(C(F)(F)P(=O)(O)O)c(Cl)c1 [Compound 189, 3′-{2-[[3-Chloro-4-(difluoro-phosphono-methyl)-benzyl]-(2-methoxy-benzenesulfonyl)-amino]-ethyl}-biphenyl-3-carboxylic acid] | 6.30 to 6.60
4 | COc1ccccc1S(=O)(=O)N(Cc1ccc(C#N)cc1)Cc1ccc(NS(=O)(=O)C(F)(F)F)cc1 [Compound 117, N-(4-(N-trifluoro-methanesulfonyl-amino]benzyl)-N-(4-cyanobenzyl)-(2-methoxy)benzenesulfonamide] | < 4.60
5 | COc1cccc(S(=O)(=O)N(Cc2ccc(C(F)(F)P(=O)(O)O)cc2)Cc2ccc(C(F)(F)P(=O)(O)O)cc2)c1 [Compound 86, [(4-{[[4-(Difluoro-phosphono-methyl)-benzyl]-(3-methoxy-benzenesulfonyl)-amino]-methyl}-phenyl)-difluoro-methyl]-phosphonic acid] | 6.30 to 6.60
6 | COc1ccccc1S(=O)(=O)N(Cc1ccc(C(F)(F)P(=O)(O)O)c(Cl)c1)Cc1ccccc1-c1cccc(O)c1 [Compound 184, [(2-Chloro-4-{[(3′-hydroxy-biphenyl-2-ylmethyl)-(2-methoxy-benzenesulfonyl)-amino]-methyl}-phenyl)-difluoro-methyl]-phosphonic acid] | 6.60 to 7.00
7 | COc1ccccc1S(=O)(=O)N(Cc1ccc(C#N)cc1)Cc1ccc(CC(C(=O)O)C(=O)O)cc1 [Compound 140, 2-(4-{[(4-Cyano-benzyl)-(2-methoxy-benzenesulfonyl)-amino]-methyl}-benzyl)-malonic acid] | < 4.60
8 | COc1ccccc1S(=O)(=O)N(Cc1ccc(-c2ccc(Cc3nn[nH]n3)cc2)cc1)Cc1ccc(C(F)(F)P(=O)(O)O)c(Cl)c1 [Compound 153, {[2-Chloro-4-({(2-methoxy-benzenesulfonyl)-[4′-(2H-tetrazol-5-ylmethyl)-biphenyl-4-ylmethyl]-amino}-methyl)-phenyl]-difluoro-methyl}-phosphonic acid] | 6.60 to 7.00
9 | COc1ccccc1S(=O)(=O)N(Cc1ccc(S(C)(=O)=O)cc1)Cc1ccc(OCC(=O)O)c(C(=O)O)c1 [Compound 134, 2-Carboxymethoxy-5-{[(4-methanesulfonyl-benzyl)-(2-methoxy-benzenesulfonyl)-amino]-methyl}-benzoic acid] | < 4.60
10 | O=P(O)(O)C(F)(F)c1ccc(CN(Cc2ccc(C(F)(F)P(=O)(O)O)cc2)S(=O)(=O)c2ccccc2Br)cc1 [Compound 84, {[4-({(2-Bromo-benzenesulfonyl)-[4-(difluoro-phosphono-methyl)-benzyl]-amino}-methyl)-phenyl]-difluoro-methyl}-phosphonic acid] | 6.30 to 6.60
11 | O=P(O)(O)C(F)(F)c1ccc(CN(Cc2ccc(C(F)(F)P(=O)(O)O)c(Br)c2)S(=O)(=O)c2ccc3ccccc3c2)cc1 [Compound 42, [(2-Bromo-4-{[[4-(difluoro-phosphono-methyl)-benzyl]-(naphthalene-2-sulfonyl)-amino]-methyl}-phenyl)-difluoro-methyl]-phosphonic acid] | > 7.00
12 | COc1ccccc1S(=O)(=O)N(Cc1ccc(C(F)(F)P(=O)(O)O)c(Cl)c1)Cc1ccccc1Br [Compound 178, [(4-{[(2-Bromo-benzyl)-(2-methoxy-benzenesulfonyl)-amino]-methyl}-2-chloro-phenyl)-difluoro-methyl]-phosphonic acid] | 6.60 to 7.00
13 | COc1ccccc1S(=O)(=O)N(Cc1ccc(C(F)(F)P(=O)(O)O)c(Cl)c1)C(Cc1ccccc1)c1ccccc1 (stereo not shown) [Compound 171, [(2-Chloro-4-{[(1,2-diphenyl-ethyl)-(2-methoxy-benzenesulfonyl)-amino]-methyl}-phenyl)-difluoro-methyl]-phosphonic acid] | 4.60 to 5.60
14 | 2,2-Dimethyl-propionic acid [(2-chloro-4-{[(3,4-dichloro-benzyl)-(2-methoxy-benzenesulfonyl)-amino]-methyl}-phenyl)-difluoro-methyl]-hydroxy-phosphinoyloxymethyl ester [Compound 150] | 6.30 to 6.60
15 | O=P(O)(O)C(F)(F)c1ccc(CN(Cc2ccc(C(F)(F)P(=O)(O)O)cc2)S(=O)(=O)c2ccccc2-c2ccccc2)cc1 [Compound 93, {[4-({(Biphenyl-2-sulfonyl)-[4-(difluoro-phosphono-methyl)-benzyl]-amino}-methyl)-phenyl]-difluoro-methyl}-phosphonic acid] | 6.30 to 6.60
16 | O=P(O)(O)C(F)(F)c1ccc(CN(Cc2ccc(Cl)c(Cl)c2)S(=O)(=O)c2ccccc2Cl)cc1Br [Compound 82] | 6.60 to 7.00
17 | O=P(O)(O)C(F)(F)c1ccc(CN(Cc2ccc(C(F)(F)P(=O)(O)O)cc2)S(=O)(=O)c2cccc(Cl)c2Cl)cc1 [Compound 91, {[4-({(2,3-Dichloro-benzenesulfonyl)-[4-(difluoro-phosphono-methyl)-benzyl]-amino}-methyl)-phenyl]-difluoro-methyl}-phosphonic acid] | 4.60 to 5.60
18 | O=P(O)(O)C(F)(F)c1ccc(CN(Cc2ccc(C(F)(F)P(=O)(O)O)cc2)S(=O)(=O)c2ccccc2)cc1 [Compound 60, {[4-({Benzenesulfonyl-[4-(difluoro-phosphono-methyl)-benzyl]-amino}-methyl)-phenyl]-difluoro-methyl}-phosphonic acid] | 6.30 to 6.60
19 | COc1ccccc1S(=O)(=O)N(Cc1ccc(-c2ccc(Cl)c(C(=O)NO)c2)cc1)Cc1ccc(C(F)(F)P(=O)(O)O)c(Cl)c1 [Compound 181, [(2-Chloro-4-{[(4′-chloro-3′-hydroxycarbamoyl-biphenyl-4-ylmethyl)-(2-methoxy-benzenesulfonyl)-amino]-methyl}-phenyl)-difluoro-methyl]-phosphonic acid] | > 7.00
20 | COc1ccc(S(=O)(=O)N(Cc2ccc(C(=O)C(=O)O)cc2)Cc2ccc(S(C)(=O)=O)cc2)c(OC)c1 [Compound 111, (4-{[(2,4-Dimethoxy-benzenesulfonyl)-(4-methanesulfonyl-benzyl)-amino]-methyl}-phenyl)-oxo-acetic acid] | < 4.60
21 | COc1ccccc1S(=O)(=O)N(Cc1ccc(-c2ccc(CC#N)cc2)cc1)Cc1ccc(C(F)(F)P(=O)(O)O)c(Cl)c1 [Compound 152, [(2-Chloro-4-{[(4′-cyanomethyl-biphenyl-4-ylmethyl)-(2-methoxy-benzenesulfonyl)-amino]-methyl}-phenyl)-difluoro-methyl]-phosphonic acid] | 6.60 to 7.00
22 | O=P(O)(O)C(F)(F)c1ccc(CN(Cc2ccc(Cl)c(Cl)c2)S(=O)(=O)c2ccccc2)cc1Br [Compound 68, [(4-{[Benzenesulfonyl-(3,4-dichloro-benzyl)-amino]-methyl}-2-bromo-phenyl)-difluoro-methyl]-phosphonic acid] | 6.30 to 6.60
